pEC50, pKi: −log10 of the molar value.

Assay [1] relates to Mia Paca-2 cells. Kind of assay: Histone H3 (Ser10) phosphorylation ELISA, abrogation of camptothecin-induced G2 arrest (CHK-1 cellular assay). Particulars: camptothecin 8 hrs, then compound with nocodozole 16 hours. In kind it is cell-based. The protocol: The Histone H3 phosphorylation ELISA assay detects cells entering mitosis and represents the primary in vitro cell-based assay used to measure the cellular potency of compounds in abrogating the G2 check point induced by DNA damage in HeLa cells or MiaPaCa cells. The candidate substances were assayed for potency in their ability to inhibit camptothecin-induced G2 arrest, as measured by an increase in Histone H3 phosphorylation on Ser10, a marker of entry into mitosis.
The PathScan Phospho-Histone H3 (Ser10) Sandwich ELISA kit was used (Cell Signaling, #7155) and the assay was performed according to manufacturer recommendations. Tissue culture plates were seeded with HeLa cells or MiaPaCa Cells and allowed to attach overnight. The cells were then treated with camptothecin to induce DNA damage for 8 hrs. Candidate substances or diluent were then added in the presence of nocodozole for 16 hours. Cells were then lysed with buffer from Assay Designs (#80-1114) supplemented with protease inhibitors and frozen overnight. The fresh whole cell lysates were then thawed and added to the ELISA plate with shaking for 3 hours. Between all subsequent steps plates were washed 4 times with PBST. Biotinylated phospho Histone H3 (ser10) detection antibody was added for 1 hour, followed by addition of horseradish peroxidase-linked streptavidin secondary antibody for 1 hour. Color development of the antibody was performed with addition of TMB substrate and incubation for 2 minutes on a plate shaker. Stop solution was added and plates were read with absorbance at 450 nm on a spectrophotometer. EC50 values were calculated by sigmoid curve fitting using a four-parameter analysis.
Under the “Ki” column, data entries in the format of “%” are percent inhibition data where no Ki data is available. Data entry under the “EC50” column with an * are data obtained using Mia Paca-2 cells rather than HeLa cells. Data is not available where noted as n/a.
In general terms: In an ELISA, binding on a coated surface is turned into a signal by an enzyme label.

For assay [2], the target named is T1, CHK1 (kinase domain) (Homo sapiens, UniProt O14757).
T1 construct: a solution containing 1 nM of CHK1 (kinase domain)
T1 sequence (O14757 9-265 limits assumed): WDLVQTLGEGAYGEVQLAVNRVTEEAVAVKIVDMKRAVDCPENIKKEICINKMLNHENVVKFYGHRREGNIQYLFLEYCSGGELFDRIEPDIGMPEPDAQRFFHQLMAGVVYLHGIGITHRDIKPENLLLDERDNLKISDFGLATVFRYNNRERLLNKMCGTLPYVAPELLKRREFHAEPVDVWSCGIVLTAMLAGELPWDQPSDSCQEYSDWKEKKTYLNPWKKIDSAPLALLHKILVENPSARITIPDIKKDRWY
Kind of assay: CHK1 Ki determination, spectrophotometric coupled (pyruvate kinase/lactate dehydrogenase) assay. In kind it is biochemical. Particulars: CHK-1 kinase domain; 150 uM ATP, 125 uM Syntide 2. In outline: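 Ki values, or % inhibition where no Ki was obtained, come from a tight-binding fit that uses active enzyme concentration and the ATP Km. Rates were followed as NADH loss at 340 nm, with ADP production coupled via pyruvate kinase and lactate dehydrogenase. Reactions with ATP (150 uM) and Syntide 2 (125 uM) were started after the CHK1 kinase domain had stood with inhibitor for 15 min.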

Setting [3] is: Homo sapiens, MIA PaCa-2, Mia Paca-2 cells (entries marked *).
The mark [4] stands for this setting: Homo sapiens, Mia Paca-2 cells (entries marked *).

Usually pEC50 stands for −log10 of the EC50, conventionally taken in molar units. A higher pEC50 goes with a small EC50. The pKi is −log10 of the Ki, conventionally taken in molar units. Read a low pKi as a large Ki. `Cc1ncc(-c2cnc3ccccn23)nc1N[C@@H]1CCCNC1` [Example 16, 6-(imidazo[1,2-a]pyridin-3-yl)-3-methyl-N-[(3R)-piperidin-3-yl]pyrazin-2-amine] showed a negative-log EC50 (pEC50) in assay [1] (setting [3]) of 7.09. In assay [2], the pKi is 7.71.
As for `COc1cc2c(cn1)ncn2-c1cncc(N[C@@H]2CCCNC2)n1` [Example 17, 6-(6-methoxy-1H-imidazo[4,5-c]pyridin-1-yl)-N-[(3R)-piperidin-3-yl]pyrazin-2-amine], the pEC50 in assay [1] (setting [4]) is 7.23. Moreover, in assay [2], the pKi was 8.19.
Taken in the same sequence, the figures for `COc1cc2ncn(-c3cncc(N[C@@H]4CCCNC4)n3)c2cn1` [Example 18, 6-(6-methoxy-3H-imidazo[4,5-c]pyridin-3-yl)-N-[(3R)-piperidin-3-yl]pyrazin-2-amine] were 7.72 and 8.91.
Taken in the same sequence, the figures for `COc1ccn2c(-c3cncc(N[C@@H]4C5CCN(CC5)[C@@H]4C)n3)cnc2c1` [Example 19, (2R,3R)—N-[6-(7-methoxyimidazo[1,2-a]pyridin-3-yl)pyrazin-2-yl]-2-methyl-1-azabicyclo[2.2.2]octan-3-amine] were 5.00 and 6.78.
In assay [1] (setting [3]), `N#Cc1ncc(N[C@@H]2CCCNC2)nc1-c1cnc2ccccn12` [Example 20, 3-(imidazo[1,2-a]pyridin-3-yl)-5-[(3R)-piperidin-3-ylamino]pyrazine-2-carbonitrile] had a pEC50 of 5.00. In assay [2], this compound gave a pKi of 6.03.
The compound `N#Cc1ccc2c(-c3cncc(N[C@@H]4CCCNC4)n3)cnn2c1` [Example 21, 3-{6-[(3R)-piperidin-3-ylamino]pyrazin-2-yl}pyrazolo[1,5-a]pyridine-6-carbonitrile] showed a pEC50 in assay [1] (setting [4]) of 7.16. In addition, the negative logarithm of the Ki (pKi) in assay [2] was 8.22.
Compound `N#Cc1ccn2c(-c3cncc(N[C@@H]4CCCNC4)n3)cnc2c1` [Example 24, 3-{6-[(3R)-piperidin-3-ylamino]pyrazin-2-yl}imidazo[1,2-a]pyridine-7-carbonitrile] had a pEC50 in assay [1] (setting [3]) of 6.75. The compound further showed a negative-log Ki (pKi) in assay [2] of 8.20.
With `CO[C@H]1CCNC[C@@H]1Nc1cncc(-c2cnc3ccccn23)n1` [Example 29, 6-imidazo[1,2-a]pyridin-3-yl-N-[(3S,4S)-4-methoxypiperidin-3-yl]pyrazin-2-amine], the pEC50 in assay [1] (Mia Paca-2 cells (entries marked *)) was 7.06. In assay [2], the pKi is 8.26.
In turn, `COc1ccc2c(-c3cncc(N[C@@H]4CCCNC4)n3)cnn2c1` [Example 33, 6-(6-methoxypyrazolo[1,5-a]pyridin-3-yl)-N-[(3R)-piperidin-3-yl]pyrazin-2-amine] showed a pEC50 in assay [1] (setting [4]) of 8.14. In assay [2], this compound gave a pKi of 9.00.
In assay [1] (setting [3]), `COc1ccn2c(-c3cncc(N[C@@H]4CCCNC4)n3)cnc2c1` [Example 37, 6-(7-Methoxyimidazo[1,2-a]pyridin-3-yl)-N-[(3R)-piperidin-3-yl]pyrazin-2-amine] gave a pEC50 of 7.68. The same compound showed a pKi in assay [2] of 8.69.
Taken in the same sequence, the figures for `NC(=O)c1ccn2c(-c3cncc(N[C@@H]4CCCNC4)n3)cnc2c1` [Example 86, 3-{6-[(3R)-piperidin-3-ylamino]pyrazin-2-yl}imidazo[1,2-a]pyridine-7-carboxamide] were 6.53 and 8.77.
On the same counts, the results for `Fc1ccc2ncc(-c3cncc(N[C@@H]4CCCNC4)n3)n2c1` [Example 87, 6-(6-fluoroimidazo[1,2-a]pyridin-3-yl)-N-[(3R)-piperidin-3-yl]pyrazin-2-amine] are 6.90 and 8.06.
Turning to `CC(C)c1cn2c(-c3cncc(N[C@@H]4CC[C@@H](C)NC4)n3)cnc2s1` [Example 110, 6-(2-isopropylimidazo[2,1-b][1,3]thiazol-5-yl)-N-[(3R,6R)-6-methylpiperidin-3-yl]pyrazin-2-amine], the pEC50 in assay [1] (setting [4]) is 6.23. In assay [2], this compound gave a pKi of 7.76.
Taken in the same sequence, the figures for `Cc1nn2c(-c3cncc(N[C@@H]4CCCNC4)n3)cnc2s1` [Example 120, 6-(2-methylimidazo[2,1-b][1,3,4]thiadiazol-5-yl)-N-[(3R)-piperidin-3-yl]pyrazin-2-amine] were 6.16 and 7.46.
For `c1ccn2c(-c3cncc(N[C@@H]4C[C@@H]5CN[C@H]4C5)n3)cnc2c1` [Example 123, (1S,4R,6R)-N-(6-imidazo[1,2-a]pyridin-3-ylpyrazin-2-yl)-2-azabicyclo[2.2.1]heptan-6-amine], in assay [1] (setting [4]), the pEC50 was 7.64. For the same compound, the pKi in assay [2] is 8.49.
Taken in the same sequence, the figures for `C[C@@H]1CNC[C@@H]1Nc1cncc(-c2cnc3cc(Cl)ccn23)n1` [Example 129, 6-(7-chloroimidazo[1,2-a]pyridin-3-yl)-N-[(3R,4R)-4-methylpyrrolidin-3-yl]pyrazin-2-amine] were 7.97 and 9.03.
The compound `FC[C@@H]1CNC[C@@H]1Nc1cncc(-c2cnc3ccccn23)n1` [Example 130, N-[(3R,4R)-4-(fluoromethyl)pyrrolidin-3-yl]-6-imidazo[1,2-a]pyridin-3-ylpyrazin-2-amine] gave a pEC50 in assay [1] (setting [4]) of 6.86. The compound also gave a pKi in assay [2] of 8.31.
Taken in the same sequence, the figures for `Cc1cn2c(-c3cncc(N[C@@H]4CCCNC4)n3)cnc2cn1` [Example 135, 6-(6-methylimidazo[1,2-a]pyrazin-3-yl)-N-[(3R)-piperidin-3-yl]pyrazin-2-amine] were 6.68 and 7.90.
Compound `Oc1ccn2c(-c3cncc(N[C@@H]4CCCNC4)n3)cnc2c1` [Example 137, 3-{6-[(3R)-piperidin-3-ylamino]pyrazin-2-yl}imidazo[1,2-a]pyridin-7-ol] had a pEC50 in assay [1] (setting [3]) of 6.59. The pKi in assay [2] was 8.62.
As to `COc1ccc2ncn(-c3cncc(N[C@@H]4CCCNC4)n3)c2c1` [Example 142, 6-(6-methoxy-1H-benzimidazol-1-yl)-N-[(3R)-piperidin-3-yl]pyrazin-2-amine], in assay [1] (setting [4]), the pEC50 was 6.90. In assay [2], this compound had a pKi of 8.83.
In the case of `C[C@@H]1C[C@@H](Nc2cncc(-c3cnc4ccccn34)n2)CN1` [Example 144, 6-imidazo[1,2-a]pyridin-3-yl-N-[(3R,5R)-5-methylpyrrolidin-3-yl]pyrazin-2-amine], the pEC50 in assay [1] (setting [4]) is 6.78. The pKi in assay [2] was 8.50.
Taken in the same sequence, the figures for `CC1(COc2ccn3c(-c4cncc(N[C@@H]5CCNC5)n4)cnc3c2)COC1` [Example 154, 6-{7-[(3-methyloxetan-3-yl)methoxy]imidazo[1,2-a]pyridin-3-yl}-N-[(3R)-pyrrolidin-3-yl]pyrazin-2-amine] were 6.22 and 8.41.
Taken in the same sequence, the figures for `CC1(COc2ccn3c(-c4cncc(N[C@@H]5CCCNC5)n4)cnc3c2)COC1` [Example 155, 6-{7-[(3-methyloxetan-3-yl)methoxy]imidazo[1,2-a]pyridin-3-yl}-N-[(3R)-piperidin-3-yl]pyrazin-2-amine] were 7.34 and 9.00.
In assay [1] (setting [4]), `COC[C@@H]1C[C@@H](Nc2cncc(-c3cnc4ccccn34)n2)CN1` [Example 157, 6-(imidazo[1,2-a]pyridin-3-yl)-N-[(3R,5S)-5-(methoxymethyl)pyrrolidin-3-yl]pyrazin-2-amine] had a pEC50 of 7.13. The compound also showed a pKi in assay [2] of 7.66.
Consider `CC(C)OC[C@@H]1C[C@@H](Nc2cncc(-c3cnc4ccccn34)n2)CN1` [Example 158, 6-(imidazo[1,2-a]pyridin-3-yl)-N-{(3R,5S)-5-[(propan-2-yloxy)methyl]pyrrolidin-3-yl}pyrazin-2-amine], for which the pEC50 in assay [1] (setting [4]) is 6.89. The negative logarithm of the Ki (pKi) in assay [2] is 7.30.
On the same counts, the results for `CC(C)c1cn2c(-c3cncc(N[C@@H]4CCCNC4)n3)cnc2s1` [Example 160, N-[(3R)-piperidin-3-yl]-6-[2-(propan-2-yl)imidazo[2,1-b][1,3]thiazol-5-yl]pyrazin-2-amine] are 7.59 and 8.97.
For `Cc1cn2c(-c3cncc(N[C@@H]4CCCN[C@@H]4C)n3)cnc2s1` [Example 161, 6-(2-methylimidazo[2,1-b][1,3]thiazol-5-yl)-N-[(2R,3R)-2-methylpiperidin-3-yl]pyrazin-2-amine], the pEC50 in assay [1] (setting [4]) was 8.25. Moreover, in assay [2], the pKi was 8.83.
